In US11162071B2, “Compositions and methods for generating hair cells by upregulating JAG-1” (Frequency Therapeutics, Inc., priority 2018, dated 2021):
Entries after “also recorded” stand apart in the source; their conditions may differ.

Legend:
GSK-3 alpha [1] = biological target: GSK-3 alpha (Homo sapiens, UniProt P49840); details: Table 3; cited from earlier work
[2] = tested on: cochlear Lgr5 progenitor cells; assay: Expansion and enrichment of Lgr5-GFP cochlear progenitor cells in 3D culture (Lgr5+ assay); type: cell-based, mouse
From the text: “Stem Cell Proliferation Assay” as used herein is an assay to determine the capacity for agent(s) to induce the creation of stem cells from a starting cell population. In an exemplary Stem Cell Proliferation Assay, the number of cells for an initial cell population is harvested from a Lgr5-GFP mouse such as a B6.129P2-Lgr5tm1(cre/ERT2)Cle/J mouse (also known as Lgr5-EGFP-IRES-creERT2 or Lgr5-GFP mouse, Jackson Lab Stock No: 008875) between the age of 0 to 5 days, by isolating the organ of Corti sensory epithelium and dissociating the epithelium into single cells. Approximately 5000 cells are entrapped in 40 μl of culture substrate (for example: Matrigel (Corning, Growth Factor Reduced)) and placed at the center of wells in a 24-well plate with 500 μl of an appropriate culture media, growth factors and agent being tested. Appropriate culture media and growth factors include Advanced DMEM/F12 with media Supplements (1×N2, 1× B27, 2 mM Glutamax, 10 mM HEPES, 1 mM N-acetylcysteine, and 100 U/ml Penicillin/100 μg/ml Streptomycin) and growth factors (50 ng/ml EGF, 50 ng/ml bFGF, and 50 ng/ml IGF-1) as well as the agent(s) being assessed are added into each well. Cells are cultured for 10 days in a standard cell culture incubator at 37° C. and 5% CO2, with media change every 2 days. The number of Lgr5+ cells is quantified by counting the number of cells identified as Lgr5+ in an In Vitro Lgr5 activity assay. The fraction of cells that are Lgr5+ is quantified by dividing the number of cells identified as Lgr5+ in a cell population by the total number of cells present in the cell population. The number of hair cells in a population may be measured by staining with hair cell marker (e.g., Myosin VIIa), or using an endogenous reporter of hair cell genes (e.g., Pou4f3-GFP, Atoh1-nGFP) and analyzing using flow cytometry. The fraction of cells that are hair cells is quantified by dividing the number of cells identified as hair cells in a cell population by the total number of cells present in the cell population. Gene and/or protein expression and/or activity is measured in this assay using methods known in the art such as by PCR, Nanostring, immunostaining, RNAseq, RNA hybridization, or Western blot analysis.
Neonatal Lgr5-EGFP-IRES-Cre-ER mice (The Jackson Laboratory, strain 8875) were used to analyze the effects of small molecules on cochlear stem cell expansion (see Barker et al., Nature 449, 1003-7 (2007). This strain allowed for visualization and quantification of EGFP cells.
All animal studies were conducted under an approved institutional protocol per National Institutes of Health guidelines. Using neonatal animals, cochleae were dissected and the organ of Corti (sensory epithelium) was separated from the stria vascularis (ion transport epithelium) and the modiolus (nerve tissue). Epithelia were then collected and treated with TrypLE for 15-20 minutes to obtain single cells. The cells were then filtered ([…]) and suspended in a Matrigel (Corning) dome for 3D culture seeded at 0.5 cochlea per well.
Expansion of Lgr5 Cells: Cells were cultured in a 3D system and bathed in a serum free 1:1 mixture of DMEM and F12, supplemented with Glutamax (GIBCO), N2, B27 (Invitrogen), EGF (50 ng/mL; Chemicon), bFGF (50 ng/mL; Chemicon), IGF-1 (50 ng/mL; Chemicon), and small molecules for seven days. Media was changed every other day. Treatments were run in triplicate or quadruplicate.
Lgr5 cells were quantified after 7-10 days. Cell colonies were dissociated into single cells using TrypLE. The cells were then stained with propidium iodide (PI) and analyzed using a flow cytometer to count Lgr5-EGFP cells. The percentage of viable Lgr5 cells was plotted against the concentration in GraphPad Prism.
Organ of Corti are dissected from Lgr5 GFP+ mice and dissociated as single cells as described above. Background media contains the same supplements and growth factors at the same concentrations as described above. […]

Jag-1 [3] = assay: Jag-1 upregulation/expression in cultured Lgr5+ cells (qPCR); type: cell-based, mouse; details: for Jag-1 upregulation: EFI background (FIG. 3)
HDAC [4] = assay: HDAC inhibition in Lgr5 cell culture (FIG. 5); type: cell-based; details: with and without CHIR; EFI background (FIG. 5)
GSK-3 alpha [5] = biological target: GSK-3 alpha (Homo sapiens, UniProt P49841); details: GSK-3 alpha of Table 3; cited from earlier work
GSK-3 alpha (Homo sapiens, UniProt P49841), sequence (P49841 whole entry): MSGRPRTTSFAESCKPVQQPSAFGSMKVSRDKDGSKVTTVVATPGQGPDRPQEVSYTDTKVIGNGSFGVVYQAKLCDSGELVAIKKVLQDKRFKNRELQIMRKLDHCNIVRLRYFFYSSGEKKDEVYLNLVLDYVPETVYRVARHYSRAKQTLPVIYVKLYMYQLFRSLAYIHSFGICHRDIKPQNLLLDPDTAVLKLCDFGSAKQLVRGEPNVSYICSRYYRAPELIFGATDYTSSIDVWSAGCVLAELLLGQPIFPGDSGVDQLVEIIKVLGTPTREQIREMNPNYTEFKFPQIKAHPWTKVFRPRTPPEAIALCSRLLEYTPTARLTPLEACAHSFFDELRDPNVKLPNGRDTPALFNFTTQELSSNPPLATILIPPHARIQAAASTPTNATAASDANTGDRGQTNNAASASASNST

HDAC [6] = details: Table 6, cited from earlier work; for Class selectivity: HDAC class
Jag-1 [7] = assay: Jag-1 expression in cultured Lgr5+ cells, Western blot band intensity normalized to GAPDH; type: cell-based, mouse
Description: Calculated Jag-1 normalized to GAPDH using GelQuant software and bands quantified. Net volumes of Jag-1 bands were divided by net volume values of matched GAPDH bands. These values were normalized to vehicle in a background of growth factors including: 50 ng/mL EGF (E), 50 ng/mL bFGF (F), and 50 ng/mL IGF1 (I).
Cultures contained a background of growth factors including: 50 ng/mL EGF (E), 50 ng/mL bFGF (F), and 50 ng/mL IGF1 (I).
Calculated Jag-1 normalized to GAPDH using GelQuant software and bands quantified. Net volumes of Jag-1 bands were divided by net volume values of matched GAPDH bands. These values were normalized to vehicle.

[8] = control compounds CHIR99021 4 μM and Valproic Acid 1 mM, EFI background
[9] = VO-Ohpic 3 μM added to CHIR, versus CHIR, EFI background
[10] = daprodustat 1.11 μM with CHIR 4 μM + VPA 1 mM, versus CHIR and CHIR+VPA, EFI background
[11] = 1,4-DPCA 370 nM with CHIR 4 μM + VPA 1 mM, versus CHIR+VPA, EFI background
[12] = SF1670 0.1 μM added to CHIR, versus CHIR, EFI background
[13] = AS1842856 425 nM alone, EFI background
[14] = AS1842856 concentration series, EFI background (FIG. 7)

GSK-3 alpha (Homo sapiens, UniProt P49840), sequence (P49840 whole entry): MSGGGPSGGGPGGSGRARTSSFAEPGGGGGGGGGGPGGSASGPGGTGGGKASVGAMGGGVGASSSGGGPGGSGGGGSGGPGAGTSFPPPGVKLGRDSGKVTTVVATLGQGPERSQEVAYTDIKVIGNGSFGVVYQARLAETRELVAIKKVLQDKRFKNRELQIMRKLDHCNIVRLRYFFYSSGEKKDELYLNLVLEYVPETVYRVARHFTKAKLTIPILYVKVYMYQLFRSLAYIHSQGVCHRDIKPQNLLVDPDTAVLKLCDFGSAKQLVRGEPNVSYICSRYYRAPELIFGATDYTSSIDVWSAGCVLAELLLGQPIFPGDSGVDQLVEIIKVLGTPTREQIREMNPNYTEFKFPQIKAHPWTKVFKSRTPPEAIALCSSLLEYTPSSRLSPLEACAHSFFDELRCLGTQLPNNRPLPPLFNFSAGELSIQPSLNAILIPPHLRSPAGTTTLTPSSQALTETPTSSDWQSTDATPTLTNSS

Compound: Cc1ccc(C(=O)Nc2c[nH]nc2C(=O)NCCCOC(C)C)cn1 [GSK XXII]
- GSK-3 alpha (GSK-3 alpha [1]): 2.3 nM
- Lgr5+ Assay ([2]; concentration range in Lgr5+ assay, Table 3): 0.2 to 1 µM

Compound: Cc1c[nH]c(-c2cnc(NCCNc3ccc(C#N)cn3)nc2-c2ccc(Cl)cc2Cl)n1 [CHIR99021]
- Jag-1 upregulation (Jag-1 [3]; agent alone): upregulated Jag-1
- enrichment (percent LGR5-GFP(+) cell) of cochlear Lgr5 progenitor cells ([2]; CHIR alone, EFI background): elicits
- expansion (LGR5-GFP(+) cell count) of cochlear Lgr5 progenitor cells ([2]; CHIR alone, background 50 ng/mL EGF, bFGF, IGF1 (EFI)): elicits the expansion
- enrichment of Lgr5 GFP+ cochlear progenitor cells [2, 8]: enrich

Compound: N#Cc1ccc2[nH]c(O)c(-c3ccc(CN4CCOCC4)cn3)c2c1 [AZD 1080]
- GSK-3 alpha (GSK-3 alpha [1]): 6.9 nM

Compound: VO-Ohpic
- HDAC inhibition (HDAC [4]): does not elicit a detectable increase in HDAC inhibition
- Jag-1 upregulation (Jag-1 [3]; VO-Ohpic 3 μM added to CHIR, versus CHIR): enhanced; also recorded: synergistically enhances Jag-1 upregulation
- Jag-1 upregulation (Jag-1 [3]; agent alone, listed as VO): does not upregulate Jag-1
- enrichment (percent LGR5-GFP(+) cell) of cochlear Lgr5 progenitor cells [2, 9]: enhanced
- expansion (LGR5-GFP(+) cell count) of cochlear Lgr5 progenitor cells [2, 9]: enhanced

Compound: O=C(O)CNC(=O)C1C(=O)N(C2CCCCC2)C(=O)N(C2CCCCC2)C1=O [daprodustat, N-[(1,3-dicyclohexylhexahydro-2,4,6-trioxo-5-pyrimidinyl)carbonyl]-glycine]
- enrichment of Lgr5 GFP+ cochlear progenitor cells ([2]; agent alone, EFI background): does not enrich; also recorded: does not proliferate or enrich
- proliferation of Lgr5 GFP+ cochlear progenitor cells ([2]; agent alone, EFI background): does not proliferate
- Lgr5 GFP+ progenitor cell proliferation [2, 10]: does not enhance Lgr5 GFP+ progenitor cell proliferation
- enrichment of Lgr5 GFP+ progenitor cells [2, 10]: enhances enrichment

Compound: O=C(O)c1c[nH]c2c(ccc3cccnc32)c1=O [1,4-DPCA, 4,4α-dihydro-4-oxo-1,10-phenanthroline-3-carboxylic acid]
- Lgr5 GFP+ progenitor cell proliferation [2, 11]: enhances Lgr5 GFP+ progenitor cell proliferation
- enrichment of Lgr5 GFP+ progenitor cells [2, 11]: shows a trend for enrichment; also recorded: enhances Lgr5 GFP+ progenitor cell proliferation and enrichment
- enrichment of Lgr5 GFP+ cochlear progenitor cells ([2]; agent alone, EFI background): does not enrich; also recorded: does not proliferate or enrich
- proliferation of Lgr5 GFP+ cochlear progenitor cells ([2]; agent alone, EFI background): does not proliferate

Compound: O=C1NC(=O)C(c2cnc3ccccn23)=C1c1cn2c3c(cc(F)cc13)CN(C(=O)N1CCCCC1)CC2 [LY2090314, 3-(9-fluoro-2-(piperidine-1-carbonyl)-1,2,3,4-tetrahydro-[1,4]diazepino[6,7,1-hi]indol-7-yl)-4-(imidazo[1,2-a]pyridin-3-yl)-1H-pyrrole-2,5-dione]
- GSK-3 alpha (GSK-3 alpha [5]): 0.9 nM
- GSK-3 alpha (GSK-3 alpha [1]): 2.1 nM

Compound: O=C(O)CNC(=O)c1nc(Cl)c2ccccc2c1O [FG-2216, N-[(1-chloro-4-hydroxy-3-isoquinolinyl)carbonyl]-glycine]
- Lgr5 GFP+ progenitor cell proliferation ([2]; FG-2216 30 μM with CHIR 4 μM + VPA 1 mM, versus CHIR and CHIR+VPA, EFI background): proliferates Lgr5 GFP+ progenitor cell similarly
- enrichment of Lgr5 GFP+ progenitor cells ([2]; FG-2216 30 μM with CHIR 4 μM + VPA 1 mM, versus CHIR+VPA, EFI background): shows a trend for enhanced enrichment
- Lgr5 GFP+ progenitor cell proliferation ([2]; FG-2216 30 μM with CHIR 4 μM, versus CHIR and CHIR+VPA 1 mM, EFI background): enhances Lgr5 GFP+ progenitor cell proliferation
- enrichment of Lgr5 GFP+ progenitor cells ([2]; FG-2216 30 μM with CHIR 4 μM, versus CHIR+VPA 1 mM, EFI background): enhances enrichment; also recorded: enriches Lgr5 GFP+ progenitor cell enrichment
- enrichment of Lgr5 GFP+ cochlear progenitor cells ([2]; agent alone, EFI background): does not enrich; also recorded: does not proliferate or enrich
- proliferation of Lgr5 GFP+ cochlear progenitor cells ([2]; agent alone, EFI background): does not proliferate

Compound: C#CCC(CCCCCC)C(=O)O (centres unmarked) [2-hexyl-4-pentynoic acid]
- Class selectivity (HDAC [6]): Class I
- HDAC Potenc (HDAC [6]): 13 µM

Compound: CC(C)(C)C(=O)Nc1ccc2c(c1)C(=O)C(=O)c1ccccc1-2 [SF1670]
- enrichment (percent LGR5-GFP(+) cell) of cochlear Lgr5 progenitor cells [2, 12]: further enhanced
- expansion (LGR5-GFP(+) cell count) of cochlear Lgr5 progenitor cells [2, 12]: further enhanced

Compound: Jag-1 peptide: soluble Jag-1 peptide (residues 188-204), CDDYYYGFGCNKFCRPR (SEQ ID NO:1) (listed as Homo sapiens)
- Lgr5+ cell proliferation ([2]; 0.25 μM Jag-1 peptide added to 4 μM CHIR, EFI background): able to recapitulate enhancement of Lgr5+ cell proliferation; also recorded: enhances CHIR induced Lgr5+ cell proliferation

Compound: Na phenylbutyrate
- Class selectivity (HDAC [6]): Class I >
- HDAC Potenc (HDAC [6]): 9 to 16 µM

Compound: CCn1cc(C(=O)O)c(=O)c2c(N)c(F)c(NC3CCCCC3)cc21 [AS1842856]
- Jag-1 expression (Jag-1 [3]; qPCR, AS1842856 425 nM alone, EFI background): upregulates Jag-1 expression
- Jag-1 expression (Jag-1 [7]; [13]): upregulates Jag-1 expression
- expansion of cochlear Lgr5+ progenitor cells [2, 13]: elicits the expansion
- enrichment of Lgr5 cells (percentage) ([2]; AS1842856 425 nM combined with VPA 1 mM, EFI background): enriched
- LGR5+ cell growth (Lgr5 GFP(+) Cell Count) [2, 14]: concentration-dependent effects; also recorded: enhances expansion of cochlear progenitor cells concentration-dependent manner
- enrichment (Lgr5 GFP (%)) [2, 14]: concentration-dependent effects
- Lgr5-GFP colony formation ([2]; images, AS1842856 425 nM, EFI background): promotes Lgr5-GFP colony formation

Compound: CCCC(CCC)C(=O)[O-].[Na+] [Sodium Valproate]
- HDAC inhibition (HDAC [4]): concentration dependent increase in HDAC inhibition
- Jag-1 upregulation (Jag-1 [7]; AS1842856 425 nM plus VPA 1 mM, versus AS1842856 alone): enhanced the effects of 425 nM AS1842856 on Jag-1 upregulation
- Class selectivity (HDAC [6]): Class I
- HDAC Potenc (HDAC [6]): 39 to 161 µM
- enrichment of Lgr5 GFP+ cochlear progenitor cells [2, 8]: enrich
